Columns and labels:
human MCH receptor = biological target: T1, human MCH receptor (Homo sapiens, UniProt Q99705); test: calcium mobilization assay (FLIPR); functional IC50 of MCH1R antagonists; format: cell-based; conditions: recombinant HEK293 cell line expressing human MCH receptor; calcium flux after addition of agonist MCH
T1 construct: expressed in transfected cells
Text: Influence on the MCH Receptor In Vitro; Determination of Functional IC50 Values of MCH1R Antagonists
Cloning of the cDNA for the human MCH receptor, preparation of a recombinant HEK293 cell line which expresses the human MCH receptor, and functional measurements with the recombinant cell line took place in analogy to the description by Audinot et al. (J. Biol. Chem. 2001, 276, 13554-13562). A difference from the reference was, however, the use of the plasmid pEAK8 from EDGE Biosystems (USA) for the construction of the expression vector. The host used for the transfection was a transformed HEK cell line named “PEAK Stable Cells” (likewise from EDGE Biosystems). Functional measurements of the cellular calcium flux after addition of agonist (MCH) in the presence of ligand of the invention took place with the aid of the FLIPR apparatus from Molecular Devices (USA), using protocols of the apparatus manufacturer. The compounds of the invention show a significant inhibition (>30%) of the signal induced by the agonist at a concentration of 100 μM, preferably at 10 μM, particularly preferably at 1 μM, very particularly preferably at 100 nM and very very particularly preferably at 10 nM.

hERG channel = biological target: T2, hERG channel (Homo sapiens, UniProt Q12809); test: hERG channel blockade, whole-cell patch clamp in CHO cells expressing hERG; format: cell-based; conditions: CHO cells with stable hERG expression, room temperature, read-out: hERG Inh. IC50
T2 construct: expressed in transfected cells; host or cells: CHO cells (ATCC), pcDNA3 vector, G418 selection
Text: The aim of the test is to determine the concentration range in which the test compound blocks the cardiac hERG channel. Blockade of the hERG channel, which is responsible for the Ikr current in the human heart, is associated with potentially fatal arrhythmias.
For expression of the cDNA encoding the hERG channel it was cloned into the pcDNA3 vector (Invitrogen). Chinese hamster […] (CHO, American Type Culture Collection, Rockville, Md.) were transfected using lipofectamine (GIBCO/BRL, Grand Island, N.Y.) with the hERG cDNA and selected using G418 (GIBCO/BRL, Grand Island, N.Y.; 500 μg/ml). CHO cells with stable expression of the hERG channel were cultured on a HAM F-12 medium which was supplemented with 10% native bovine serum, 1× penicillin/streptomycin and 500 μg/ml G418 in an atmosphere of 95% air/5% carbon dioxide.
The cells selected for the patch clamp experiment are seeded on a plastic support 18-24 hours before the experiment. HERG channel currents are recorded at room temperature by the whole-cell variant of the patch clamp technique using an Axopatch 200B amplifier (Axon Instruments, Foster City, Calif.). The electrodes (3-6 megaohms resistance) are prepared from TW150F glass capillaries (World Precision Instruments, Sarasota, Fla.) and filled with the pipette solution (120 mM potassium aspartate, 20 mM KCl, 4 mM Na2ATP, 5 mM HEPES, 1 mM MgCl2; adjusted to pH 7.2 with KOH). The hERG channel currents are induced by a positive voltage pulse (20 mV) followed by a negative pulse (−40 mV) and are recorded for later analysis. As soon as the hERG channel current of the cell flushed with the control solution ([…], 5 mM KCl, 2.8 mM NaOAc, 1 mM MgCl2, 10 mM HEPES; 10 mM glucose, 1 mM CaCl2; adjusted to pH 7.4 with NaOH) is stable, the cell is perfused with the test compound dissolved in the above control solution (by dilution of a 10 or 100 mM DMSO solution of the test compound so that the DMSO content is no more than 0.1%). The current is followed continuously until no further changes occur. The same procedure is repeated with increasing concentrations of the test compound. The maximum amplitude of the hERG current is measured in picoAmperes (pA) for each concentration and for each cell. The maximum amplitude in pA for each concentration of the test compound is compared with that of the pure control solution in the same cell and calculated as % of the control value.
Evaluation: The test compound is tested at various concentrations in 3-5 CHO cells which express the hERG channel. The IC50 is obtained by use of nonlinear least squares regression (GraphPAD Software, San Diego, Calif.).

physchem = format: physicochemical; conditions: pH 7.4, aqueous buffer, kinetic from dmso stock
Procedure: A DMSO solution of the test compound (2.5 mM; 0.5 μl) is pipetted into 200 μl of an aqueous test solution (e.g. phosphate-buffered saline, 10×, 1M, Sigma, adjusted to 10 mM, pH 7.4) in a 96-well microtiter plate, and the turbidity is measured at the resulting theoretical concentration for the test compound of 6.25 μM using a nephelometer (e.g. Nephelostar Galaxy, BMG Labtech). The concentration of the test compound in the aqueous test solution is then raised to a theoretical 12.5 μM by adding further DMSO solution (2.5 mM; 0.5 μl), and the turbidity measurement is repeated. Further additions of DMSO solutions (1 μl, 2.5 mM; 0.5 μl, 10 mM; then 9×1 μl, 10 mM resulting in theoretical concentrations of 25 μM, 50 μM, 100 μM, 150 μM, 200 μM, 250 μM, 300 μM, 350 μM, 400 μM, 450 μM and 500 μM) with turbidity measurement in between complete the measurement process.
Evaluation: The turbidity values from the nephelometer are plotted against the theoretical concentration of the test compound in the aqueous test solution. As soon as a significant turbidity is detected (e.g. 5 times above the control value of the aqueous test solution) at a theoretical concentration, the level of concentration below this is stated to be the solubility limit of the test compound in the test solution. Thus, the maximum possible measurement range emerges as values <6.25 μM, 6.25−500 μM and >500 μM.

T1 sequence (Q99705 whole entry): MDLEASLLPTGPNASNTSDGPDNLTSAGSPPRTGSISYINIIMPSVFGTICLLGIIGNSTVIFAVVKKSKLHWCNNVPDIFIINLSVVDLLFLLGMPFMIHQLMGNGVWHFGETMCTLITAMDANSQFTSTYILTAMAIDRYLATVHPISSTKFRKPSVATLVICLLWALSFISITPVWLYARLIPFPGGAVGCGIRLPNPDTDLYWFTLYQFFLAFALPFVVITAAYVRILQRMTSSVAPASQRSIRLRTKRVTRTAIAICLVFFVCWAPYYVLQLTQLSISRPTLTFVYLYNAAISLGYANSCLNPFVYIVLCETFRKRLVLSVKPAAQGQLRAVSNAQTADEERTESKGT
T2 sequence (Q12809 whole entry): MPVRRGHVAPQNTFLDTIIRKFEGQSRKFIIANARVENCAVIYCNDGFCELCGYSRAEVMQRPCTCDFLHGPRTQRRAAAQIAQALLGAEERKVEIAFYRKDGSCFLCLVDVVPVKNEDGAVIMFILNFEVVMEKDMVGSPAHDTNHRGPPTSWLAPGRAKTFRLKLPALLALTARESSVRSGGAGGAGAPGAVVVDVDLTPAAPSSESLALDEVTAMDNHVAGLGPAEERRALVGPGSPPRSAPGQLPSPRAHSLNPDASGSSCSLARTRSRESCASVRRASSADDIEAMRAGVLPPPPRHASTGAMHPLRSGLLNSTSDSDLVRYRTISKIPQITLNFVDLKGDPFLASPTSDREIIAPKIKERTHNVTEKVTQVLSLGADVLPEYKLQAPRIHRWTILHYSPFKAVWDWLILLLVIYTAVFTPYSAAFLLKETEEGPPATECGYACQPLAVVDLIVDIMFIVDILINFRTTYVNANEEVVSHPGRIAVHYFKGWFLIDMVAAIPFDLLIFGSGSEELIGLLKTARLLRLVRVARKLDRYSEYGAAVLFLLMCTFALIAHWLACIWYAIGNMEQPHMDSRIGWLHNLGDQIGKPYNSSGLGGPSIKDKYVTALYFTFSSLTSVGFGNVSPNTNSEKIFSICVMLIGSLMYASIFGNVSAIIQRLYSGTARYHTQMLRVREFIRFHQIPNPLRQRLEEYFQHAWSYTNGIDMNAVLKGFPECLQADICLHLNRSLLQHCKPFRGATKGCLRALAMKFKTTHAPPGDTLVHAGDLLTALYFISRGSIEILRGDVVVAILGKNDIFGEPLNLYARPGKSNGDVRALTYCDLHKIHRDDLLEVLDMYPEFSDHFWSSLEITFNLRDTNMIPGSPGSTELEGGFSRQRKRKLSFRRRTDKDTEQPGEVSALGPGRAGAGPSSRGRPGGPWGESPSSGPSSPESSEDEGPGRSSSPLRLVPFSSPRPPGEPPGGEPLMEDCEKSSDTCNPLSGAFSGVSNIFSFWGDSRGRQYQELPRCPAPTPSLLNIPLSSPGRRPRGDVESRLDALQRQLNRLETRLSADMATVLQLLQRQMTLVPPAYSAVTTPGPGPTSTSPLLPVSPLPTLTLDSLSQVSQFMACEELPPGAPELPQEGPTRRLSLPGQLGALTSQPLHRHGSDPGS

IC50 (human MCH receptor) | SMILES | other results
670 nM | CN(C(=O)c1ccc(OC[C@@H]2CCCO2)cc1)[C@H]1CCc2cc(CN3CCCC3)ccc2C1 [Example 2, N-Methyl-N-((S)-6-pyrrolidin-1-ylmethyl-1,2,3,4-tetrahydronaphthalen-2-yl)-4-[(S)-1-(tetrahydrofuran-2-yl)methoxy]benzamide] | –
3290 nM | O=C(N[C@@H]1CCc2cc(CN3CCCC3)ccc2C1)c1ccc(OC[C@@H]2CCCO2)cc1 [Example 3-2] | –
100 nM | O=C(N[C@H]1CCc2cc(CN3CC4CCCC4C3)ccc2C1)c1ccc(OC[C@@H]2CCCO2)cc1 (some centres unmarked) [Example 3-14] | –
340 nM | CN1CCN(Cc2ccc3c(c2)CC[C@H](NC(=O)c2ccc(OC[C@@H]4CCCO4)cc2)C3)CC1 [Example 3-37] | –
180 nM | O=C(N[C@H]1CCc2cc(CN3CCC(O)CC3)ccc2C1)c1ccc(OC[C@@H]2CCCO2)cc1 [Example 3-40] | –
310 nM | CC(=O)N1CCN(Cc2ccc3c(c2)CC[C@H](NC(=O)c2ccc(OC[C@@H]4CCCO4)cc2)C3)CC1 [Example 3-44] | –
1850 nM | O=C1CN(Cc2ccc3c(c2)CC[C@H](NC(=O)c2ccc(OC[C@@H]4CCCO4)cc2)C3)CCN1 [Example 3-72] | –
120 nM | O=C(N[C@H]1CCc2cc(CN3CCCOCC3)ccc2C1)c1ccc(OC[C@@H]2CCCO2)cc1 [Example 3-77] | –
170 nM | N#CC1CCN(Cc2ccc3c(c2)CC[C@H](NC(=O)c2ccc(OC[C@@H]4CCCO4)cc2)C3)CC1 [Example 3-84] | –
120 nM | O=C(N[C@H]1CCc2cc(CN3CC[C@@H](F)C3)ccc2C1)c1ccc(OC[C@@H]2CCCO2)cc1 [Example 3-86] | –
90 nM | O=C(N[C@H]1CCc2cc(CN3CCC4(CCCC4)C3)ccc2C1)c1ccc(OC[C@@H]2CCCO2)cc1 [Example 3-194] | –
1280 nM | CC1(COc2ccc(C(=O)N[C@H]3CCc4cc(CN5CCCCCC5)ccc4C3)cc2)COC1 [Example 9-2] | –
170 nM | O=C(N[C@H]1CCc2cc(CN3CCCCCC3)ccc2C1)c1ccc(OCC2OCCO2)cc1 [Example 9-3] | –
440 nM | O=C(N[C@H]1CCc2cc(CN3CCCCCC3)ccc2C1)c1ccc(OCC2CCOCC2)cc1 [Example 9-4] | –
310 nM | O=C(N[C@H]1CCc2cc(CN3CCCCCC3)ccc2C1)c1ccc(OCC2CCCCO2)cc1 (some centres unmarked) [Example 9-5] | –
300 nM | O=C(N[C@H]1CCc2cc(CN3CCCCCC3)ccc2C1)c1ccc(OC[C@@H]2CCCO2)c(F)c1 [Example 12, N-((S)-6-Azepan-1-ylmethyl-1,2,3,4-tetrahydronaphthalen-2-yl)-3-fluoro-4-[(S)-1-(tetrahydrofuran-2-yl)methoxy]benzamide] | –

Further lines, the compound ahead of its results:

SMILES | IC50 (human MCH receptor) | other results
O=C(N[C@H]1CCc2cc(CNC3CCCCC3)ccc2C1)c1ccc(OC[C@@H]2CCCO2)cc1 [Example 3-6] | – | IC50 (hERG channel): > 10000 nM; solubility kinetic (physchem): > 500 µM
COC(=O)CNCc1ccc2c(c1)CC[C@H](NC(=O)c1ccc(OC[C@@H]3CCCO3)cc1)C2 [Example 3-26] | 360 nM | –
O=C(N[C@H]1CCc2cc(CNCCCn3ccnc3)ccc2C1)c1ccc(OC[C@@H]2CCCO2)cc1 [Example 3-32] | 130 nM | –
O=C(N[C@H]1CCc2cc(CNCCCN3CCCC3=O)ccc2C1)c1ccc(OC[C@@H]2CCCO2)cc1 [Example 3-33] | 270 nM | –
O=C(N[C@H]1CCc2cc(CN3C[C@H]4CC[C@H](CC4)C3)ccc2C1)c1ccc(OC[C@@H]2CCCO2)cc1 [Example 3-48] | 210 nM | –
Cc1ccc(CNCc2ccc3c(c2)CC[C@H](NC(=O)c2ccc(OC[C@@H]4CCCO4)cc2)C3)o1 [Example 3-51] | 190 nM | –
O=C(N[C@H]1CCc2cc(CNCC3OCCO3)ccc2C1)c1ccc(OC[C@@H]2CCCO2)cc1 [Example 3-61] | 300 nM | –
CS(=O)(=O)CCNCc1ccc2c(c1)CC[C@H](NC(=O)c1ccc(OC[C@@H]3CCCO3)cc1)C2 [Example 3-64] | 180 nM | –
Cc1cc(CNCc2ccc3c(c2)CC[C@H](NC(=O)c2ccc(OC[C@@H]4CCCO4)cc2)C3)no1 [Example 3-71] | 750 nM | –
O=C(N[C@H]1CCc2cc(CN3C[C@@H]4C[C@H]3CO4)ccc2C1)c1ccc(OC[C@@H]2CCCO2)cc1 [Example 3-100] | 330 nM | –
COc1ccc(CNCc2ccc3c(c2)CC[C@H](NC(=O)c2ccc(OC[C@@H]4CCCO4)cc2)C3)cn1 [Example 3-103] | 200 nM | –
O=C(N[C@H]1CCc2cc(CN3CCn4cnnc4C3)ccc2C1)c1ccc(OC[C@@H]2CCCO2)cc1 [Example 3-120] | 2410 nM | –
CC(C)(C)CNCCc1ccc2c(c1)CC[C@H](NC(=O)c1ccc(OC[C@@H]3CCCO3)cc1)C2 [Example 3-135] | 150 nM | –
CC1(CNCc2ccc3c(c2)CC[C@H](NC(=O)c2ccc(OC[C@@H]4CCCO4)cc2)C3)CCCC1 [Example 3-195] | 110 nM | –
CC(C)(C)CNC(C)(C)c1ccc2c(c1)CC[C@H](NC(=O)c1ccc(OC[C@@H]3CCCO3)cc1)C2 [Example 8-1, N-{(S)-6-[1-(2,2-Dimethylpropylamino)-1-methylethyl]-1,2,3,4-tetrahydro-naphthalen-2-yl}-4-[(S)-1-(tetrahydrofuran-2-yl)methoxy]benzamide] | 240 nM | –
CC(C)CN1CCCC(c2ccc3c(c2)CC[C@H](NC(=O)c2ccc(OC[C@@H]4CCCO4)cc2)C3)C1 (some centres unmarked) [Example 8-3] | 230 nM | –
CN1CCCCC1c1ccc2c(c1)CC[C@H](NC(=O)c1ccc(OC[C@@H]3CCCO3)cc1)C2 (some centres unmarked) [Example 8-8] | 180 nM | –
CC(C)CCN[C@H](C)c1ccc2c(c1)CC[C@H](NC(=O)c1ccc(OC[C@@H]3CCCO3)cc1)C2 [Example 8-16] | 120 nM | –
O=C(N[C@H]1CCc2cc([C@@H]3CCCN(C4CCOCC4)C3)ccc2C1)c1ccc(OC[C@@H]2CCCO2)cc1 [Example 8-26] | 230 nM | –
CC1CCN([C@H](C)c2ccc3c(c2)CC[C@H](NC(=O)c2ccc(OC[C@@H]4CCCO4)cc2)C3)CC1 [Example 10, N-{(S)-6-[(R)-1-(4-Methylpiperidin-1-yl)ethyl]-1,2,3,4-tetrahydronaphthalen-2-yl}-4-[(S)-1-(tetrahydrofuran-2-yl)methoxy]benzamide] | 110 nM | –
COC1CCN(Cc2ccc3c(c2)CC[C@H](n2ccc4cc(OC[C@@H]5CCCO5)ccc4c2=O)C3)CC1 [Example 13, 2-[(S)-6-(4-Methoxypiperidin-1-ylmethyl)-1,2,3,4-tetrahydronaphthalen-2-yl]-6-[(S)-1-(tetrahydrofuran-2-yl)methoxy]-2H-isoquinolin-1-one] | 1400 nM | –
